From publication PMC10946806, “Development of Bifunctional, Raman Active Diyne‐Girder Stapled α‐Helical Peptides” (Chemistry (Weinheim an Der Bergstrasse, Germany), 2023)

assay: on-resin Glaser oxidative coupling of two terminal alkynes (i,i+7 side chains) to 1,3-diyne; CuCl 5 eq, 4,4'-bis(hydroxymethyl)-2,2'-bipyridine 7.5 eq, DIPEA 20 eq, microwave; details: the molecule shown is the open-chain precursor, 32-membered ring, DMF, 10.0 mM, 60.0 °C, 3.0 h

Structure (SMILES) | ring closure, conversion by HPLC
C#CCCC[C@](C)(NC(=O)[C@H](CCCCNC(=O)OC(C)(C)C)NC(=O)[C@H](C)NC(=O)CCCCCNC(=O)OCC1c2ccccc2-c2ccccc21)C(=O)N[C@@H](Cc1ccc(OC(C)(C)C)cc1)C(=O)N[C@@H](C)C(=O)N[C@@H](CCCNC(=N)NS(=O)(=O)c1c(C)c(C)c2c(c1C)CC(C)(C)O2)C(=O)N[C@@H](CCCC)C(=O)NCC(=O)N[C@@H](CCCNC(=N)NS(=O)(=O)c1c(C)c(C)c2c(c1C)CC(C)(C)O2)C(=O)N[C@@](C)(CCCC#C)C(=O)N[C@@H](CC(C)C)C(=O)N[C@@H](CCCCNC(=O)OC(C)(C)C)C(=O)N[C@@H](CCC(=O)OC(C)(C)C)C(=O)N[C@H](C(=O)N[C@@H](C)C(=O)N[C@@H](CCCCNC(=O)OC(C)(C)C)C(N)=O)[C@@H](C)CC | 52%

same assay, conditions: the molecule shown is the open-chain precursor, 36-membered ring, DMF, 10.0 mM, 60.0 °C, 3.0 h

Structure (SMILES) | ring closure, conversion by HPLC
C#CCCCCC[C@@](C)(NC(=O)[C@H](CCCNC(=N)NS(=O)(=O)c1c(C)c(C)c2c(c1C)CC(C)(C)O2)NC(=O)CNC(=O)[C@H](CCCC)NC(=O)[C@H](CCCNC(=N)NS(=O)(=O)c1c(C)c(C)c2c(c1C)CC(C)(C)O2)NC(=O)[C@H](C)NC(=O)[C@H](Cc1ccc(OC(C)(C)C)cc1)NC(=O)[C@](C)(CCCCCC#C)NC(=O)[C@H](CCCCNC(=O)OC(C)(C)C)NC(=O)[C@H](C)NC(=O)CCCCCNC(=O)OCC1c2ccccc2-c2ccccc21)C(=O)N[C@@H](CC(C)C)C(=O)N[C@@H](CCCCNC(=O)OC(C)(C)C)C(=O)N[C@@H](CCC(=O)OC(C)(C)C)C(=O)N[C@H](C(=O)N[C@@H](C)C(=O)N[C@@H](CCCCNC(=O)OC(C)(C)C)C(N)=O)[C@@H](C)CC | 52%
C#CCCCCC[C@](C)(NC(=O)[C@H](CCCCNC(=O)OC(C)(C)C)NC(=O)[C@H](C)NC(=O)CCCCCNC(=O)OCC1c2ccccc2-c2ccccc21)C(=O)N[C@@H](Cc1ccc(OC(C)(C)C)cc1)C(=O)N[C@@H](C)C(=O)N[C@@H](CCCNC(=N)NS(=O)(=O)c1c(C)c(C)c2c(c1C)CC(C)(C)O2)C(=O)N[C@@H](CCCC)C(=O)NCC(=O)N[C@@H](CCCNC(=N)NS(=O)(=O)c1c(C)c(C)c2c(c1C)CC(C)(C)O2)C(=O)N[C@@](C)(CCCCCC#C)C(=O)N[C@@H](CC(C)C)C(=O)N[C@@H](CCCCNC(=O)OC(C)(C)C)C(=O)N[C@@H](CCC(=O)OC(C)(C)C)C(=O)N[C@H](C(=O)N[C@@H](C)C(=O)N[C@@H](CCCCNC(=O)OC(C)(C)C)C(N)=O)[C@@H](C)CC | 100%
C#CCCCCC[C@@](C)(NC(=O)[C@H](CCCCNC(=O)OC(C)(C)C)NC(=O)[C@H](C)NC(=O)CCCCCNC(=O)OCC1c2ccccc2-c2ccccc21)C(=O)N[C@@H](Cc1ccc(OC(C)(C)C)cc1)C(=O)N[C@@H](C)C(=O)N[C@@H](CCCNC(=N)NS(=O)(=O)c1c(C)c(C)c2c(c1C)CC(C)(C)O2)C(=O)N[C@@H](CCCC)C(=O)NCC(=O)N[C@@H](CCCNC(=N)NS(=O)(=O)c1c(C)c(C)c2c(c1C)CC(C)(C)O2)C(=O)N[C@](C)(CCCCCC#C)C(=O)N[C@@H](CC(C)C)C(=O)N[C@@H](CCCCNC(=O)OC(C)(C)C)C(=O)N[C@@H](CCC(=O)OC(C)(C)C)C(=O)N[C@H](C(=O)N[C@@H](C)C(=O)N[C@@H](CCCCNC(=O)OC(C)(C)C)C(N)=O)[C@@H](C)CC | 68%
C#CCCCCC[C@H](NC(=O)[C@H](CCCNC(=N)NS(=O)(=O)c1c(C)c(C)c2c(c1C)CC(C)(C)O2)NC(=O)CNC(=O)[C@H](CCCC)NC(=O)[C@H](CCCNC(=N)NS(=O)(=O)c1c(C)c(C)c2c(c1C)CC(C)(C)O2)NC(=O)[C@H](C)NC(=O)[C@H](Cc1ccc(OC(C)(C)C)cc1)NC(=O)[C@H](CCCCCC#C)NC(=O)[C@H](CCCCNC(=O)OC(C)(C)C)NC(=O)[C@H](C)NC(=O)CCCCCNC(=O)OCC1c2ccccc2-c2ccccc21)C(=O)N[C@@H](CC(C)C)C(=O)N[C@@H](CCCCNC(=O)OC(C)(C)C)C(=O)N[C@@H](CCC(=O)OC(C)(C)C)C(=O)N[C@H](C(=O)N[C@@H](C)C(=O)N[C@@H](CCCCNC(=O)OC(C)(C)C)C(N)=O)[C@@H](C)CC | 38%
C#CCCCCC[C@@](C)(NC(=O)[C@H](CCCCNC(=O)OC(C)(C)C)NC(=O)[C@H](C)NC(=O)CCCCCNC(=O)OCC1c2ccccc2-c2ccccc21)C(=O)N[C@@H](Cc1ccc(OC(C)(C)C)cc1)C(=O)N[C@@H](C)C(=O)N[C@@H](CCCNC(=N)NS(=O)(=O)c1c(C)c(C)c2c(c1C)CC(C)(C)O2)C(=O)N[C@@H](CCCC)C(=O)NCC(=O)N[C@@H](CCCNC(=N)NS(=O)(=O)c1c(C)c(C)c2c(c1C)CC(C)(C)O2)C(=O)N[C@@](C)(CCCCCC#C)C(=O)N[C@@H](CC(C)C)C(=O)N[C@@H](CCCCNC(=O)OC(C)(C)C)C(=O)N[C@@H](CCC(=O)OC(C)(C)C)C(=O)N[C@H](C(=O)N[C@@H](C)C(=O)N[C@@H](CCCCNC(=O)OC(C)(C)C)C(N)=O)[C@@H](C)CC | 94%

same assay, conditions: the molecule shown is the open-chain precursor, 38-membered ring, DMF, 10.0 mM, 60.0 °C, 3.0 h

Structure (SMILES) | ring closure, conversion by HPLC
C#CCCCCCC[C@@](C)(NC(=O)[C@H](CCCCNC(=O)OC(C)(C)C)NC(=O)[C@H](C)NC(=O)CCCCCNC(=O)OCC1c2ccccc2-c2ccccc21)C(=O)N[C@@H](Cc1ccc(OC(C)(C)C)cc1)C(=O)N[C@@H](C)C(=O)N[C@@H](CCCNC(=N)NS(=O)(=O)c1c(C)c(C)c2c(c1C)CC(C)(C)O2)C(=O)N[C@@H](CCCC)C(=O)NCC(=O)N[C@@H](CCCNC(=N)NS(=O)(=O)c1c(C)c(C)c2c(c1C)CC(C)(C)O2)C(=O)N[C@](C)(CCCCCCC#C)C(=O)N[C@@H](CC(C)C)C(=O)N[C@@H](CCCCNC(=O)OC(C)(C)C)C(=O)N[C@@H](CCC(=O)OC(C)(C)C)C(=O)N[C@H](C(=O)N[C@@H](C)C(=O)N[C@@H](CCCCNC(=O)OC(C)(C)C)C(N)=O)[C@@H](C)CC | 93%
C#CCCCCCC[C@@](C)(NC(=O)[C@H](CCCCNC(=O)OC(C)(C)C)NC(=O)[C@H](C)NC(=O)CCCCCNC(=O)OCC1c2ccccc2-c2ccccc21)C(=O)N[C@@H](Cc1ccc(OC(C)(C)C)cc1)C(=O)N[C@@H](C)C(=O)N[C@@H](CCCNC(=N)NS(=O)(=O)c1c(C)c(C)c2c(c1C)CC(C)(C)O2)C(=O)N[C@@H](CCCC)C(=O)NCC(=O)N[C@@H](CCCNC(=N)NS(=O)(=O)c1c(C)c(C)c2c(c1C)CC(C)(C)O2)C(=O)N[C@@](C)(CCCCCCC#C)C(=O)N[C@@H](CC(C)C)C(=O)N[C@@H](CCCCNC(=O)OC(C)(C)C)C(=O)N[C@@H](CCC(=O)OC(C)(C)C)C(=O)N[C@H](C(=O)N[C@@H](C)C(=O)N[C@@H](CCCCNC(=O)OC(C)(C)C)C(N)=O)[C@@H](C)CC | 100%
C#CCCCCCC[C@@](C)(NC(=O)[C@H](CCCNC(=N)NS(=O)(=O)c1c(C)c(C)c2c(c1C)CC(C)(C)O2)NC(=O)CNC(=O)[C@H](CCCC)NC(=O)[C@H](CCCNC(=N)NS(=O)(=O)c1c(C)c(C)c2c(c1C)CC(C)(C)O2)NC(=O)[C@H](C)NC(=O)[C@H](Cc1ccc(OC(C)(C)C)cc1)NC(=O)[C@](C)(CCCCCCC#C)NC(=O)[C@H](CCCCNC(=O)OC(C)(C)C)NC(=O)[C@H](C)NC(=O)CCCCCNC(=O)OCC1c2ccccc2-c2ccccc21)C(=O)N[C@@H](CC(C)C)C(=O)N[C@@H](CCCCNC(=O)OC(C)(C)C)C(=O)N[C@@H](CCC(=O)OC(C)(C)C)C(=O)N[C@H](C(=O)N[C@@H](C)C(=O)N[C@@H](CCCCNC(=O)OC(C)(C)C)C(N)=O)[C@@H](C)CC | 68%
